System: hPSCs
Assay: sequential differentiation of hPSCs into endothelial cells on collagen IV, EC marker expression by flow cytometry / immunofluorescence
Format: cell-based, human
Protocol: In the inventive method, hPSCs were cultured at a concentration of 1.25×10^4 per cm^2 on collagen IV plates for 12 days. In the “direct” method, the cells were treated with VEGF for the entire time. With the “sequential” method, the cells were supplemented with 10% serum and were not treated with VEGF until day 6. See FIG. 1 for a comparison of the protocols.
In our sequential method, hPSCs were cultured on collagen IV plates in media supplemented with 10% serum. After 6 days in culture, cells were strained and re-cultured in media supplemented with 50 ng/ml vascular endothelial growth factor (VEGF). Cells which were differentiated via direct means were cultured in the VEGF-supplemented media for all 12 days. EC markers were examined via immunofluorescence microscopy and flow cytometry. We tested hESC line, H9, as well as hiPSC line, MR31, which was derived from normal, fetal fibroblasts using three factors, Oct-4, Sox2, Klf4 (8, 9).
However, because sequentially-derived cells were only ˜5% VEcad+, we sought to improve upon the differentiation efficiency via biochemical means. To this end, we studied the addition of a TGFβ inhibitor, SB431542 (10) as well as angiogenic growth factors, bone morphogenetic protein-4 (BMP4) and Indian Hedgehog (lhh). For our TGFβ inhibitor studies, we examined the effects of SB431542 in the second half of differentiation plus high (50 ng/ml) or low (1 ng/ml) VEGF. […] Remarkably, VEcad expression increased regardless of high or low VEGF concentrations. […] Cells expressed approximately 1% Tra-1-60 indicating they were fully differentiated.

[1] = added in the second half of sequential differentiation plus VEGF, 12 days in culture

NC(=O)c1ccc(-c2nc(-c3ccc4c(c3)OCO4)c(-c3ccccn3)[nH]2)cc1 [SB431542]
Expression of CD31 [1]: increased
Expression of KDR [1]: increased
expression of mature EC marker, VEcad (added in the second half of sequential differentiation plus high (50 ng/ml) or low (1 ng/ml) VEGF, 12 days in culture): dramatic increase

B1: BMP4: angiogenic growth factor, bone morphogenetic protein-4 (protein, UniProt P12644 293-408, looked up)
Bone morphogenetic protein 4: SPKHHSQRARKKNKNCRRHSLYVDFSDVGWNDWIVAPPGYQAFYCHGDCPFPLADHLNSTNHAIVQTLVNSVNSSIPKACCVPTELSAISMLYLDEYDKVVLKNYQEMVVEGCGCR
endothelial differentiation capacity (compared with levels seen with SB431542 supplementation): not able to augment

Reference: US20180171291A1, “DERIVATION OF ENDOTHELIAL CELLS FROM MAMMALIAN PLUIRPOTENT STEM CELLS” (THE JOHNS HOPKINS UNIVERSITY, priority 2012, published 2018)
